Experimental data: PMC11591356, “Immunomodulatory Effects of the Tobacco Defensin NaD1” (Antibiotics, 2024)

Columns and labels:
[1] = test system: PBMCs; settings: cited from earlier work
Protocol: (§1) The human cathelicidin LL-37 has been previously shown to have a toxic effect on PBMCs at the concentration of 12 µM [20].

[2] = test system: Caco-2 cells in a monolayer; assay: Cytotoxicity assay, resazurin method, Caco-2 cells in a monolayer; format: cell-based, human; settings: Caco-2 monolayer, peptide 0.8 µM, 24 h
Protocol: (§2) The cytotoxic effects of the tobacco defensin NaD1 towards PBMCs or Caco-2 cells were investigated in 96-well plates using the resazurin method as previously described. In brief, 4 × 10^5 per well Caco-2 cells not in a monolayer as well as Caco-2 cells in a monolayer in DMEM/F12 (1:1) medium with 10% FBS or 2 × 10^6 PBMCs per well in RPMI-1640 also with 10% FBS were incubated with serial dilutions of NaD1 at final concentrations from 0.39 to 50 μM or from 2.1 to 180 μM for 24 h. After that, resazurin (Sigma, St. Louis, MO, USA) was added at a final concentration of 70 µM and the plates were incubated overnight (16–18 h). Untreated cells and cells treated by non-ionogenic detergent Triton X-100 were used as negative and positive controls, respectively. […] The cell viability was estimated by resorufin fluorescence registered at […] via the following equation: cell viability (%) = (Fsample/Fcontrol) × 100%. Experiment was carried out twice in duplicate.

[3] = test system: PBMCs; assay: Cytotoxicity assay, resazurin method, PBMCs; format: cell-based, human; settings: PBMCs, peptide 2.5 µM, 24 h, resazurin
Excerpt: Peripheral blood mononuclear cells (PBMCs) from healthy donors were purchased from American Type Culture Collection (ATCC PCS-800-011). Primary monocytes were isolated from PBMCs by adherence to the plastic surface. For that, PBMCs were thawed, resuspended in RPMI-1640 culture medium (Corning, Corning, NY, USA) without serum at a concentration of 2 × 10^6 cells/mL, seeded into the wells of a 24-well plate and placed in a humidified CO2-intubator (CellXpert C170i, Eppendorf, Hamburg, Germany) for 1 h. After that, non-adherent cells were removed from the wells and attached monocytes were thoroughly washed with PBS and cultured in a CO2-intubator in complete RPMI-1640 containing 10% human serum (HS Type AB, Capricorn Scientific, Ebsdorfergrund, Germany) and 1×antibiotic-antimycotic (1×AA) solution (Sigma, St. Louis, MO, USA).
as §2

[4] = test system: THP-1 cells; settings: peptide 1.2 µM; cited from earlier work
Protocol: as §1

[5] = test system: THP-1-derived macrophages; assay: ELISA assay of cytokine production by THP-1-derived macrophages; format: cell-based, human
Protocol: THP-1 (ATCC TIB-202) cells were thawed and cultured in complete RPMI-1640, containing 10% FBS (Capricorn Scientific) and 1×AA solution in CO2-intubator. Monocytic THP-1 cells were differentiated into resting M0 macrophages by stimulation for 24 h with 100 ng/mL phorbol 12-myristate 13-acetate (PMA) in complete RPMI-1640. Then, the attached macrophage-like cells were washed out with culture medium without serum and incubated for another 48 h in PMA-free complete culture medium with 10% HS and 1×AA solution.
THP-1-derived macrophages were seeded into the wells of a 24-well plate at a density of 2.7 × 10^5 cells/well in complete RPMI-1640 with 10% HS and 1×AA solution. Then, 24 h later, the culture medium was replaced by the fresh complete RPMI-1640 containing lipopolysaccharide from Escherichia coli 0111:B4 (LPS, Sigma, St. Louis, MO, USA) or zymosan from the cell wall of Saccharomyces cerevisiae (Serva, Heidelberg, Germany) at concentrations of 1 or 10 μg/mL, respectively; antimicrobial peptides NaD1, Psd1, LL-37 or HBD2 at concentrations of 2 or 0.2 µM; and combinations of antimicrobial peptides with LPS or zymosan at the same concentrations. Insoluble zymosan was resuspended in sterile water and sonicated twice for 30 s; after that, the stock solution was heated to 80 °C for 20 min. Peptides were added 2 h before stimulation with LPS and zymosan. After that, PAMPs solutions were added and the cells were cultured for 24 h. Complete RPMI-1640 only was used in the control wells. Culture supernatants were collected and stored at −70 °C prior to the cytokines’ assessment.
The production of pro- and anti-inflammatory cytokines IL-1β, IL-6, TNF-α and IL-10 by stimulated and non-stimulated THP-1-derived macrophages were estimated by using ELISA kits (Vector-Best, Koltsovo, Russia). Briefly, 96-well plates with adsorbed monoclonal antibodies to the corresponding cytokine were used. Undiluted or diluted 5, 20 or 80 times in the case of IL-10, TNF-α and IL-1β or IL-6, respectively, culture supernatants from the wells of 24-well plates were taken for analysis. Biotinylated polyclonal antibodies to cytokines, streptavidin conjugated to HRP and TMB substrate were further used for the detection of immune complexes. A panel of calibration solutions containing different concentrations of cytokines was used in each experiment. Experiments were performed using two biological and two technical repeats. The release of the cytokines in the control and experimental samples was compared with an unpaired two-sample t-test using GraphPad Prism v.8.0.1 (GraphPad Software, Inc., San Diego, CA, USA). The p values ≤ 0.05 were considered significant.

[6] = test system: Caco-2 polarized monolayer; settings: cited from earlier work
[7] = test system: mature DCs; settings: previous study; cited from earlier work
Excerpt: In the next step of this work, we studied the immunomodulatory properties of NaD1 by using primary monocytes and monocyte-derived immature dendritic cells (DCs). DCs represent a type of antigen-presenting cells, playing a key role in adaptive immune response. Their primary functions involve phagocytosis, processing and presentation of captured antigens to T cells. In most tissues, they are present in a state known as “immature” DCs, unable to activate and stimulate T lymphocytes; their activation and maturation typically starts when DCs identify danger signals. This is why immature DCs ...

[8] = test system: primary monocytes; settings: cited from earlier work
Excerpt: Then, primary human monocytes were chosen to study the immunomodulatory properties of NaD1. Monocytes circulating in the blood can be recruited and extravasated into tissues during inflammatory processes. Moreover, the recruitment of monocytes to the sites of inflammation is critical for host defense not only when infected, but also in the case of sterile injury. In the case of monocytes, NaD1 at the same concentration induced a decrease of chemotactic CXCL1/GROα and CXCL8/IL-8 levels and elevation of the fibroblast growth factor 2 (FGF-2) production; however, these changes were ...

[9] = peptide 2 µM 2 h before LPS 1 μg/mL, 24 h, vs LPS alone
[10] = peptide 2 µM 2 h before zymosan 10 μg/mL, 24 h, vs zymosan alone

Compound: CC[C@H](C)[C@H](NC(=O)[C@H](CCCCN)NC(=O)[C@H](CCC(=O)O)NC(=O)[C@H](CCCCN)NC(=O)[C@H](CO)NC(=O)[C@H](CCCCN)NC(=O)[C@H](CCCNC(=N)N)NC(=O)[C@H](Cc1ccccc1)NC(=O)[C@H](Cc1ccccc1)NC(=O)[C@H](CC(=O)O)NC(=O)CNC(=O)[C@H](CC(C)C)NC(=O)[C@@H](N)CC(C)C)C(=O)NCC(=O)N[C@@H](CCCCN)C(=O)N[C@@H](CCC(=O)O)C(=O)N[C@@H](Cc1ccccc1)C(=O)N[C@@H](CCCCN)C(=O)N[C@@H](CCCNC(=N)N)C(=O)N[C@H](C(=O)N[C@H](C(=O)N[C@@H](CCC(N)=O)C(=O)N[C@@H](CCCNC(=N)N)C(=O)N[C@H](C(=O)N[C@@H](CCCCN)C(=O)N[C@@H](CC(=O)O)C(=O)N[C@@H](Cc1ccccc1)C(=O)N[C@@H](CC(C)C)C(=O)N[C@@H](CCCNC(=N)N)C(=O)N[C@@H](CC(N)=O)C(=O)N[C@@H](CC(C)C)C(=O)N[C@H](C(=O)N1CCC[C@H]1C(=O)N[C@@H](CCCNC(=N)N)C(=O)N[C@H](C(=O)N[C@@H](CCC(=O)O)C(=O)N[C@@H](CO)C(=O)O)[C@@H](C)O)C(C)C)[C@@H](C)CC)C(C)C)[C@@H](C)CC [LL-37]
- Toxic effect on PBMCs ([1]; peptide 12 µM): toxic effect

Compound: CC[C@H](C)[C@H](NC(=O)CN)C(=O)NCC(=O)N[C@@H](C)C(=O)N[C@H](C(=O)N[C@@H](CC(C)C)C(=O)N[C@@H](CCCCN)C(=O)N[C@H](C(=O)N[C@@H](CC(C)C)C(=O)N[C@H](C(=O)N[C@H](C(=O)NCC(=O)N[C@@H](CC(C)C)C(=O)N1CCC[C@H]1C(=O)N[C@@H](C)C(=O)N[C@@H](CC(C)C)C(=O)N[C@H](C(=O)N[C@@H](CO)C(=O)N[C@@H](Cc1c[nH]c2ccccc12)C(=O)N[C@H](C(=O)N[C@@H](CCCCN)C(=O)N[C@@H](CCCNC(=N)N)C(=O)N[C@@H](CCCCN)C(=O)N[C@@H](CCCNC(=N)N)C(=O)N[C@@H](CCC(N)=O)C(=O)N[C@@H](CCC(N)=O)C(N)=O)[C@@H](C)CC)[C@@H](C)CC)[C@@H](C)O)[C@@H](C)O)C(C)C)C(C)C [melittin, reference compound]
- Cell viability [2]: a decrease in cell viability was observed
- Cell death [3]: approximately 50%

Compound: HBD2: Recombinant human β-defensin 2 (UNIPROT O15263), expressed in E. coli (GIGDPVTCLKSGAICHPVFCPRRYKQIGTCGLPGTKCCKKP; UniProt O15263 24-64, looked up) [reference compound]
- Level of THP-1 cell death [4]: did not increase the level of THP-1 cell death
- LPS-induced IL-6 production [5, 9]: increased the LPS-stimulated production of IL-6
- Zymosan-induced IL-6 production [5, 10]: slight decrease in the zymosan-induced production of IL-6

Compound: Psd1: Pea defensin Psd1 (UNIPROT P81929), obtained as described previously (KTCEHLADTYRGVCFTNASCDDHCKNKAHLISGTCHNWKCFCTQNC; UniProt P81929 1-46, looked up) [reference compound]
- Papp A→B compared with NaD1 ([6]; Psd1 value from earlier work): nearly the same
- Papp, secretory versus absorptive direction [6]: apparent permeability coefficients were higher in the secretory direction than in the absorptive one
- Production of cytokines and chemokines by mature DCs [7]: induced an elevation of the production of cytokines IL-1RA, IL-5, IL-6, IL-10, IL-12, IL-15, IL-27 and TNFα and chemokines CXCL8/IL-8, CCL2/MCP-1 and CCL7/MCP-3
- Cytotoxic activity against PBMCs ([1]; peptide 50 µM): no cytotoxic activity
- Production of chemokines by monocytes [8]: increased the production of both CCL3/MIP-1α and CCL4/MIP-1β
- LPS-induced IL-6 production [5, 9]: increased the LPS-stimulated production of IL-6
- LPS-induced IL-10 production [5, 9]: increased the LPS-induced production of IL-10
- LPS-induced TNF-α secretion [5, 9]: reduced the LPS-induced secretion of TNF-α
- IL-1β production in the presence of zymosan [5, 10]: slightly reduced the production of IL-1β
- IL-10 production in the presence of zymosan [5, 10]: increased the production of IL-10 in the presence of zymosan
- IL-10 production, unstimulated macrophages ([5]; peptide 2 µM alone, vs unstimulated control): induced the production of IL-10
